System: rebuilt skin (for example Epiderm, Episkin or Skinethic)
Assay: Penetration rate of 5,6-dihydroxyindole through rebuilt skin in static diffusion cells, VIS spectrophotometry of oxidation products
Format: in vitro ADME
Conditions: 5 mM final concentration, 16 hour coating at an infinite dose
Method: The 5,6-dihydroxyindole mixture with the system limiting the transcutaneous passage has been prepared fresh by adding an system equivalent volume (=1 mM MnCl2 in 1 M NaHCO3; pH=10) to an aqueous solution of 10 mM 5,6-dihydroxyindole. Then, it has been coated on rebuilt skin (for example Epiderm® from Mattek, Inc., Episkin® from Episkin SNC or Skinethic® from Skinethic Laboratories) placed in diffusion cells in a static diffusion mode at a dose of 250 mg·cm^2 for 16 hours. The analysis of the penetration rates of 5,6-dihydroxyindole through the skin has been conducted through VIS spectrophotometry through the oxidation products thereof. The 5,6-dihydroxyindole range has been prepared as follows. A plurality of dilutions from 0 to 0.5 mM 5,6-dihydroxindole in receiving liquid has been left for 16 hours at 32° C. for forming oxidation products in the form of a pigment. Such pigments absorb visible light (VIS) (“scattering” effect) depending on their concentration, which is directly related to the initial 5,6-dihydroxyindole concentration. Thus, the 5,6-dihydroxyindol range has been obtained through VIS absorption of such pigments formed after 5,6-dihydroxyindole oxydation. A 1:1 mixture between 10 mM 5,6-dihydroxyindole and distilled water has been used as a control. […]

Oc1cc2cc[nH]c2cc1O [5,6-dihydroxyindole]
penetration rate of the 5,6-dihydroxyindole (with no system (control mixture, 1:1 with distilled water)): approximately 3 % of the dose coated | penetration rate of the 5,6-dihydroxyindole (with the system (1 mM MnCl2 in 1 M NaHCO3, pH 10, equivalent volume)): lower than 0.5%
